We go through 6 compounds from PMC5917093, “Brain Transport Profiles of Ginsenoside Rb1 by Glucose Transporter 1: In Vitro and in Vivo” (Frontiers in Pharmacology, 2018).

The test system of data set [1] is rBMEC (primary cultured rat brain microvascular endothelial cells). Kind of data set: Transporter inhibition assays: Rb1 uptake into rBMEC in presence of inhibitors. The class given is in vitro ADME. The conditions noted are these: Rb1 60 μg/mL, 37°C; for effect on Rb1 uptake into rBMEC versus control: 120 min. The method, then:
In the present study, the uptake at 120 min was selected to measure the effect of test agents on the transport characteristics of Rb1. Rb1 concentration was set to be 60 μg/mL. The rBMEC was seeded out in 6-well plates, allowed to adhere, and grown to confluency. To study the transport mechanisms, uptake of Rb1 was carried out in the presence of a metabolic energy inhibitor and a series of established transporter inhibitors. The impact of these inhibitors on Rb1 uptake by rBMEC was assessed at the steady state at 37°C. NaN3 (500 μM), probenecid (100 μM), CsA (25, 50, and 100 μM), or phloretin (5 μM) was added to inhibit different transport systems. In the inhibition study, to further assess the effect of phloretin on Rb1 uptake into rBMEC, the cells were incubated at 37°C at a set time (5, 15, 30, 60, and 120 min). Uptake was measured after incubation with Rb1 in the presence of phloretin at the concentration of 5 μM.
HPLC–MS/MS was composed by a Shimadzu LC-20A chromatographic system and an API 4000 mass spectrometer equipped with electrospray ionization (ESI) source system. MS/MS detection was performed on an API 4000 mass spectrometer using multiple reaction monitoring (MRM) mode by monitoring the fragmentation of m/z 1107.6 → 179.0 for Rb1 and m/z 779.4 → 345.2 for digoxin (IS). Chromatographic separations were carried out on a Shim-pack XD-ODS column (2.0 mm × 30 mm, 2.2 μm) with a Shim-pack GVD-ODS (2.0 mm × 5 mm, 4.6 μm) guard column (Shimadzu, Japan) at a flow rate of 0.28 mL/min using 10 mM acetic acid in water (phase A) and methanol (phase B) as mobile phase. A linear step gradient elution was performed as followed: phase B was increased from 45 to 90% within the first 3 min, and decreased to 45% within the next 3 min (total gradient time: 6 min). A 10 μL sample was injected into the system with the auto-sample conditioned at 4°C and column temperature maintained at 40°C.
The biological samples (100 μL) were placed in a 1.5 mL Eppendorf tube, and mixed with 10 μL IS solution (500 ng/mL) for 3 min by vortexing. The mixture was extracted with methanol (0.9 mL) by vortexing, and then centrifuged at 14,000 rpm for 5 min. The supernatant (0.8 mL) was transferred to a new 1.5 mL Eppendorf tube and evaporated to dryness under vacuum. The dried residue was reconstituted with 100 μL methanol, vortex-mixed for 30 s, and centrifuged at 14,000 rpm for 5 min. Finally, 10 μL of the supernatant liquid was immediately subjected to HPLC–MS/MS analysis. The system control and data analysis were performed by AB Sciex Analyst software (the software version: Analyst 1.5.1).

A further data set has as its system rBMEC. Put plainly: Cell viability assessment, CCK-8 assay. Particulars: 37°C, 4 h.
On the set-up of data set [2]: method as in Li et al., 2007. The conditions noted are these: rats, TPNS injection 10.0 mg/kg intravenous; ref Li et al., 2007; cited from earlier work.
The target in data set [3] is T1, GLUT1 (Rattus norvegicus, UniProt P11167).
T1 construct: GLUT1, as the major GLUT isoform expressed in brain endothelial cells; endogenous in cells; host or cells: primary cultured rat brain microvascular endothelial cells (rBMEC)
T1 sequence (P11167 1-492): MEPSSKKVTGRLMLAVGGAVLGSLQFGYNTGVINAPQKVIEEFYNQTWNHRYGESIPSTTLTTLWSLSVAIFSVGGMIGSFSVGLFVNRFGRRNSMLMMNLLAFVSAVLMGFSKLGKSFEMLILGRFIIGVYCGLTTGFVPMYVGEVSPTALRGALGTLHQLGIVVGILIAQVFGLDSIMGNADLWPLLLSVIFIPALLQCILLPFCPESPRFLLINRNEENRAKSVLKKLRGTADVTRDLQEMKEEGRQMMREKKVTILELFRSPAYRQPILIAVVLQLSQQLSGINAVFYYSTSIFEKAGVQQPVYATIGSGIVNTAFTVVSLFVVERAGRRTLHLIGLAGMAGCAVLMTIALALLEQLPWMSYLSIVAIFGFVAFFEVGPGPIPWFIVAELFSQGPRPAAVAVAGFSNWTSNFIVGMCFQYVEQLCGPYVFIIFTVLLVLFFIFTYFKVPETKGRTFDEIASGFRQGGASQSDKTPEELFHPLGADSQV
Kind of data set: Competitive inhibition of Rb1 uptake by rBMEC by D-glucose (Lineweaver-Burk plot). The class given is in vitro ADME. The conditions noted are these: 100 mM D-glucose, Rb1 30-960 μg/mL, 37°C, 120 min. The method, then: In the competition experiments, Rb1 uptake (30–960 μg/mL) was measured in the absence and presence of D-glucose (100 mM) which is a principal physiological substrate of GLUT1. Briefly, cells were grown in 6-well plates for 7 days before their medium was removed, pre-incubated with warm glucose-free Hanks’ solution for 30 min. Subsequently, samples and controls were treated as described transport studies, but this time in addition with 100 mM D-glucose to the various concentrations of Rb1 in glucose-free Hanks’ solution at 37°C for 120 min.

Data set [4] has as its target GLUT1. On the set-up: method as in Burant and Bell, 1992. The conditions noted are these: ref Burant and Bell, 1992; read-out: Ki of GLUT1 for glucose; cited from earlier work.
For data set [5], the system named is GLUT1. Put plainly: Western blot, GLUT1 expression in rBMEC. Particulars: phloretin 5 μM together with Rb1 60 μg/mL; at 30, 60 and 120 min. The data set is classed as cell-based, rat. The method, then:
(§1) Total proteins were extracted and 60 μg of each protein was separated on SDS-10% polyacrylamide gels. Proteins on the gel were transferred to PVDF membrane (Merck-Millipore). Blots were blocked with 5% skimmed milk dissolved in PBS containing 0.1% Tween-20 (PBST) for 2 h at room temperature. The membrane was incubated with primary antibody at 4°C overnight. Washing of the blots with PBST three times was followed by incubation with horseradish peroxidase-conjugated secondary antibody for 2 h at room temperature. After washing, the chemiluminescence signal was monitored using the ChemiDoc XRS+ system (Bio-Rad, Hercules, CA, United States). Densitometric semi-quantitative analysis of protein bands was carried out using Image J.
In general terms: A western blot detects proteins with antibodies after separation by electrophoresis.

The next data set has as its system GLUT3. Put plainly: Western blot, GLUT3 expression in rBMEC. The class given is cell-based, rat. Particulars: phloretin 5 μM together with Rb1 60 μg/mL. The method, then:
as §1

Data set [6] deals with GLUT1. Kind of data set: Western blot, GLUT1 expression in normal rat brain. The class given is in vivo. Particulars: phloretin 5 mg/kg i.v. for 1 week, P < 0.05. Here is the method:
Rats were randomly divided into two groups in 36 of each group. One group served as the control and another group were treated with phloretin. Dose of phloretin was set to be 5 mg/kg. Rb1 (10 mg/kg, i.v.) was administered to the experimental rats after i.v. administration of phloretin or saline for consecutive 1 week. Six rats from each group were selected and the blood samples were collected into heparinized Eppendorf tubes via the abdominal aorta at 0.5, 2, and 6 h after Rb1 administration. Then, brain samples were immediately collected. The plasma samples were obtained by centrifuging at 1000 × g for 10 min. Plasma and brain samples were frozen at -80°C until analysis. Total proteins were extracted and 60 μg of each protein was separated on SDS-10% polyacrylamide gels. Proteins on the gel were transferred to PVDF membrane (Merck-Millipore). Blots were blocked with 5% skimmed milk dissolved in PBS containing 0.1% Tween-20 (PBST) for 2 h at room temperature. The membrane was incubated with primary antibody at 4°C overnight. […] After washing, the chemiluminescence signal was monitored using the ChemiDoc XRS+ system (Bio-Rad, Hercules, CA, United States). Densitometric semi-quantitative analysis of protein bands was carried out using Image J.

As to `[N-]=[N+]=[N-].[Na+]` [NaN3, sodium azide], in data set [1] (NaN3 500 μM), the “effect on Rb1 uptake into rBMEC versus control” value is listed as “no statistically significant differences”. Moreover, the “viability of rBMEC versus control (CCK-8)” value in the data set on rBMEC (NaN3 500 μM) is “no statistically significant differences”.

With `CCCN(CCC)S(=O)(=O)c1ccc(C(=O)O)cc1` [probenecid], the “effect on Rb1 uptake into rBMEC versus control” value in data set [1] (probenecid 100 μM) is recorded as “no statistically significant differences”. In addition, the “viability of rBMEC versus control (CCK-8)” value in the data set on rBMEC (probenecid 100 μM) is reported as “no statistically significant differences”.

Regarding `CC(C)=CCC[C@](C)(O[C@@H]1O[C@H](CO)[C@@H](O)[C@H](O)[C@H]1O)[C@H]1CC[C@]2(C)[C@@H]1[C@H](O)C[C@@H]1[C@@]3(C)CC[C@H](O)C(C)(C)[C@@H]3[C@@H](O[C@@H]3O[C@H](CO)[C@@H](O)[C@H](O)[C@H]3O)C[C@]12C` [Rg1, ginsenoside Rg1], in data set [2], the “duration in brain tissue” value is recorded as roughly 1 h and the “largest content in brain tissue” value is listed as “about 0.2 μg/g”.

Turning to `OC[C@H]1OC(O)[C@H](O)[C@@H](O)[C@@H]1O` (stereo partly drawn) [D-glucose], the Ki was 885 µM at GLUT1 [3] and roughly 1000 µM on GLUT1 [4].

Take `C=C1[C@@H](C)[C@H]2[C@H](Cc3ccccc3)NC(=O)[C@]23OC(=O)/C=C/C(=O)CCC[C@@H](C)C/C=C/[C@H]3[C@@H]1O` [CsA, cytochalasin A]: the “effect on Rb1 uptake into rBMEC versus control” value in data set [1] (CsA 25, 50 and 100 μM) was “no statistically significant differences”. For the same compound, the “viability of rBMEC versus control (CCK-8)” value in the data set with rBMEC (CsA 25, 50 and 100 μM) is on record as “no statistically significant differences”.

Consider `O=C(CCc1ccc(O)cc1)c1c(O)cc(O)cc1O` [phloretin], for which the “effect on cell-to-medium (C/M) ratio of Rb1, time course” value in data set [1] (phloretin 5 μM, 5-120 min, especially from min 30 to 120) is “significantly decreased”. In addition, the “effect on Rb1 uptake into rBMEC versus control” value in data set [1] (phloretin 5 μM, P < 0.01) was “significant decrease”. For the same compound, the “expression level of GLUT1 in rBMEC versus control” value in the data set on GLUT1 [5] is reported as “significantly lower”. Also, in the data set with GLUT3, the “expression level of GLUT3 in rBMEC versus control” value is listed as “no significant difference”. In the data set with GLUT1 [6], the “expression level of GLUT1 in brain versus untreated normal rats” value was “significantly decreased”. Moreover, the “viability of rBMEC versus control (CCK-8)” value with rBMEC (phloretin 5 μM) was “no statistically significant differences”.

One may read the Ki as the dissociation constant of the complex between target and ligand, obtained from inhibition or displacement.
